Results taken from US20260327191A1, “GSK3a INHIBITORS AND METHODS OF USE THEREOF” (Blueprint Medicines Corporation, priority 2023, published 2026).
Where two headings read alike, the source gives them in different places.

Assays:
GSK3B [1] = molecular target: T1, GSK3B (Homo sapiens, UniProt P49841); assay: In vitro enzymatic activity assay, GSK3β; format: biochemical; parameters: Full length human GSK3α or GSK3B expressed as N-terminal GST fusion proteins; GST (N); purchased Carna Biosciences (Japan); host or cells: baculovirus host; conditions: 1.0 mM ATP, 1.0 μM peptide substrate, 120 min, 25° C
Description: (§1) Full length human GSK3α or GSK3B expressed as N-terminal GST fusion proteins in baculovirus host were purchased from Carna Biosciences (Japan). The kinase was pre-incubated with ATP (adenosine-5′-triphosphate) for 45 min, then incubated with tested compounds for another 45 min in assay buffer that contains 100 mM HEPES (N-2-hydroxyethylpiperazine-N′-2-ethanesulfonic acid), pH 7.5, 10 mM MgCl2, 1.0 mM DTT, and 0.015% Briji-35. […] Percent inhibition was plotted against compound concentration to generate 10-point dose response curve with 3-fold serial dilution starting from 10 μM. IC50 value was determined from the 4-parameter logistic curve fitting.

human GSK3α = molecular target: T2, human GSK3α (Homo sapiens, UniProt P49840); assay: In vitro enzymatic activity assay, GSK3α; format: biochemical; conditions: 1.0 mM ATP, 1.0 μM peptide substrate, 120 min, 25° C
T2 construct: Full length human GSK3α or GSK3B expressed as N-terminal GST fusion proteins; GST (N); purchased Carna Biosciences (Japan); host or cells: baculovirus host
Description: as §1

GSK3A = molecular target: T3, GSK3A (Homo sapiens, UniProt P49840); assay: NanoBRET cellular target engagement assay, Nanoluc-GSK3A in HEK293 cells; format: cell-based; conditions: NanoBRET GSK3α IC50, HEK293 cells, tracer K-8, 2 hours, 37° C
T3 construct: expressed in transfected cells
Description: (§2) In the assay, HEK293 cells stably expressing either Nanoluc-GSK3A or Nanoluc-GSK3B were maintained in culture media and seeded, using a multidrop dispenser, at a density of 5×10^3 cells per well in 384-well white plates with 100 ng/ml doxycycline (Sigma) overnight.
(§3) Compound was first diluted in DMSO to generate a 9-point serial dilution then diluted to 10× final concentration in Opti-MEM™ (Gibco). After overnight incubation, cell medium was aspirated from the seeded cells using a microplate automatic washer, then 27 μL of pre-warmed Opti-MEM™ with kinase tracer (K-8) and 3 μL of Opti-MEM™ diluted DMSO or compounds were added per well. Plates were protected from light, mixed in an orbital shaker for 3 min at RT and incubated at 37° C., 5% CO2 in a humidified incubator for 2 hours. After acclimation at RT for 15 min, 15 μL of 3× complete NanoBRET™ Nano-Glo Substrate/Inhibitor (Promega) was added per well. Plates were mixed in an orbital shaker for 3 min at RT and incubated for an additional 30 min. Donor emission at 460 nm and acceptor emission at 647 nm were measured in EnVision multilabel plate reader (Perkin Elmer).

GSK3B [2] = molecular target: T1, GSK3B; assay: NanoBRET cellular target engagement assay, Nanoluc-GSK3B in HEK293 cells; format: cell-based; parameters: expressed in transfected cells; conditions: NanoBRET GSK3β IC50, HEK293 cells, tracer K-8, 2 hours, 37° C
Description: as §2, §3

T1 sequence (P49841 whole entry, the tested form may be a part): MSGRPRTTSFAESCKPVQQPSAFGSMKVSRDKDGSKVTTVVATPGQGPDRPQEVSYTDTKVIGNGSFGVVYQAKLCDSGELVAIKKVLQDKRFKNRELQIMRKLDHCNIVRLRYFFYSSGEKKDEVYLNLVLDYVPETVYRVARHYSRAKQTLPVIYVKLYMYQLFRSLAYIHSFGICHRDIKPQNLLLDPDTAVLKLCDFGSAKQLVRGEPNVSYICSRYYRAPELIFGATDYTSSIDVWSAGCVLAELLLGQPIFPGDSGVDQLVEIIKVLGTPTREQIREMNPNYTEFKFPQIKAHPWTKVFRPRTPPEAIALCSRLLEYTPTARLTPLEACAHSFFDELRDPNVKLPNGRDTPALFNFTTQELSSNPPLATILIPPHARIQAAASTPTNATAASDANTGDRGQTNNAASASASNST
T3 sequence (P49840 whole entry): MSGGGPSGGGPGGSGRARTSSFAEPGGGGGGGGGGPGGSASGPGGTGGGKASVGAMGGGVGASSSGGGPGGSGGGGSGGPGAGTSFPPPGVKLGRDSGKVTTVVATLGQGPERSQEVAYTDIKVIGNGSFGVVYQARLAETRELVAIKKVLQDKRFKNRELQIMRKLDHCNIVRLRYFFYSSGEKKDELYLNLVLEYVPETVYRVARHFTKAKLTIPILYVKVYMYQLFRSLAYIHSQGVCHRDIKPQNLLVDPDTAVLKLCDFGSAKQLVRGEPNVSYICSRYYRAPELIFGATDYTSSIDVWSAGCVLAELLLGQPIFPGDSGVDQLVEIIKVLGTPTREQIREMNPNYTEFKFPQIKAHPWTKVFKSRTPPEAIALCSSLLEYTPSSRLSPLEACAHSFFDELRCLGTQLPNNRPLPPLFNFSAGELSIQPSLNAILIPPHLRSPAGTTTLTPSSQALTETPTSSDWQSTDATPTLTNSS
T2 sequence (P49840 whole entry, the tested form may be a part): as the sequence (P49840 whole entry) above

SMILES | IC50 (GSK3B [1]; read-out: Enzyme GSK3β (IC50)) | IC50 (human GSK3α; read-out: Enzyme GSK3α (IC50)) | IC50 (GSK3A) | IC50 (GSK3B [2]) | IC50 (GSK3B [1]; Enzyme GSK3β (IC50)) | IC50 (human GSK3α; Enzyme GSK3α (IC50))
CNCc1cncc(NC(=O)c2c(N)ncn(-c3c(C)cc(COC)cc3C)c2=O)c1 [Example 99, 4-amino-1-(4-(methoxymethyl)-2,6-dimethylphenyl)-N-(5-((methylamino)methyl)pyridin-3-yl)-6-oxo-1,6-dihydropyrimidine-5-carboxamide] | 1020 nM | 20.5 nM | 7.4 nM | 565 nM | – | –
COc1cc(Cl)c(-n2cnc(N)c(C(=O)Nc3cncc(C(N)CC(F)F)c3)c2=O)c(Cl)c1 (single isomer, unassigned) [Example 85, (R)-4-amino-N-(5-(1-amino-3,3-difluoropropyl)pyridin-3-yl)-1-(2,6-dichloro-4-methoxyphenyl)-6-oxo-1,6-dihydropyrimidine-5-carboxamide or (S)-4-amino-N-(5-(1-amino-3,3-difluoropropyl)pyridin-3-yl)-1-(2,6-dichloro-4-methoxyphenyl)-6-oxo-1,6-dihydropyrimidine-5-carboxamide] | 551 nM | 9.4 nM | 4.2 nM | 374 nM | – | –
COc1cc(Cl)c(-n2cnc(N)c(C(=O)Nc3cncc(CNC(C)C)c3)c2=O)c(Cl)c1 [Example 20, 4-amino-1-(2,6-dichloro-4-methoxyphenyl)-N-(5-((isopropylamino)methyl)pyridin-3-yl)-6-oxo-1,6-dihydropyrimidine-5-carboxamide] | 685 nM | 14 nM | 7.2 nM | 396 nM | – | –
CCCOc1cc(Cl)c(-n2cnc(N)c(C(=O)Nc3cncc(CNCC)c3)c2=O)c(Cl)c1 [Example 86, 4-amino-1-(2,6-dichloro-4-propoxyphenyl)-N-(5-((ethylamino)methyl)pyridin-3-yl)-6-oxo-1,6-dihydropyrimidine-5-carboxamide] | 414 nM | 6.6 nM | 4.2 nM | 321 nM | – | –
CCNCc1cncc(NC(=O)c2c(N)ncn(-c3c(Cl)cc(C(=O)OC)cc3Cl)c2=O)c1 [Example 198, methyl 4-(4-amino-5-((5-((ethylamino)methyl)pyridin-3-yl)carbamoyl)-6-oxopyrimidin-1 (6H)-yl)-3,5-dichlorobenzoate] | 332 nM | 5.6 nM | 3.7 nM | 209 nM | – | –
COc1cc(Cl)c(-n2cnc(N)c(C(=O)Nc3cncc([C@H]4CCC[C@H](C)N4)c3)c2=O)c(Cl)c1 (single isomer, unassigned) [Example 81] | 314 nM | 5.9 nM | 2.3 nM | 117 nM | – | –
COCc1cc(C)c(-n2cnc(N)c(C(=O)Nc3cncc4c3CCC4(C)N)c2=O)c(C)c1 (single isomer, unassigned) [Example 27, (R)-4-amino-N-(7-amino-7-methyl-6,7-dihydro-5H-cyclopenta[c]pyridin-4-yl)-1-(4-(methoxymethyl)-2,6-dimethylphenyl)-6-oxo-1,6-dihydropyrimidine-5-carboxamide or (S)-4-amino-N-(7-amino-7-methyl-6,7-dihydro-5H-cyclopenta[c]pyridin-4-yl)-1-(4-(methoxymethyl)-2,6-dimethylphenyl)-6-oxo-1,6-dihydropyrimidine-5-carboxamide] | 54.2 nM | 2.4 nM | 1.7 nM | 42.5 nM | – | –
CCOc1cc(C)c(-n2cnc(N)c(C(=O)Nc3cnnc(C(N)=O)c3)c2=O)c(C)c1 [Example 29, 5-(4-amino-1-(4-ethoxy-2,6-dimethylphenyl)-6-oxo-1,6-dihydropyrimidine-5-carboxamido)pyridazine-3-carboxamide] | – | – | 79.2 nM | 25000 nM | 3800 nM | 92.2 nM
Nc1ncn(-c2c(Cl)cc(C(F)F)cc2Cl)c(=O)c1C(=O)Nc1cncc([C@@H]2COCCCN2)c1 (single isomer, unassigned) [Example 59, (R)-N-(5-(1,4-oxazepan-3-yl)pyridin-3-yl)-4-amino-1-(2,6-dichloro-4-(difluoromethyl)phenyl)-6-oxo-1,6-dihydropyrimidine-5-carboxamide or (S)-N-(5-(1,4-oxazepan-3-yl)pyridin-3-yl)-4-amino-1-(2,6-dichloro-4-(difluoromethyl)phenyl)-6-oxo-1,6-dihydropyrimidine-5-carboxamide] | 224 nM | 3.1 nM | 2.5 nM | 187 nM | – | –
CCOc1cc(Cl)c(-n2cnc(N)c(C(=O)Nc3cnnc(C(N)=O)c3)c2=O)c(Cl)c1 [Example 28, 5-(4-amino-1-(2,6-dichloro-4-ethoxyphenyl)-6-oxo-1,6-dihydropyrimidine-5-carboxamido)pyridazine-3-carboxamide] | 320 nM | 9.6 nM | 9 nM | 699 nM | – | –
Cc1cc(C)c(-n2cnc(N)c(C(=O)Nc3cncc([C@H]4CCCCN4)c3)c2=O)c(C)c1 [Example 145, (R)-4-amino-1-mesityl-6-oxo-N-(5-(piperidin-2-yl)pyridin-3-yl)-1,6-dihydropyrimidine-5-carboxamide] | 129 nM | 3 nM | 1 nM | 96.2 nM | – | –
Nc1ncn(-c2c(Cl)cncc2Cl)c(=O)c1C(=O)Nc1cncc([C@H]2CCCCN2)c1 [Example 152, (R)-4-amino-1-(3,5-dichloropyridin-4-yl)-6-oxo-N-(5-(piperidin-2-yl)pyridin-3-yl)-1,6-dihydropyrimidine-5-carboxamide] | 120 nM | 2.7 nM | 2.4 nM | 174 nM | – | –
C#CCC(N)c1cncc(NC(=O)c2c(N)ncn(-c3c(Cl)cc(OCC)cc3Cl)c2=O)c1 (single isomer, unassigned) [Example 150, (R)-4-amino-N-(5-(1-aminobut-3-yn-1-yl)pyridin-3-yl)-1-(2,6-dichloro-4-ethoxyphenyl)-6-oxo-1,6-dihydropyrimidine-5-carboxamide or (S)-4-amino-N-(5-(1-aminobut-3-yn-1-yl)pyridin-3-yl)-1-(2,6-dichloro-4-ethoxyphenyl)-6-oxo-1,6-dihydropyrimidine-5-carboxamide] | 44.2 nM | 1.1 nM | 1 nM | 49.5 nM | – | –
Cc1cc(C(F)CF)cc(C)c1-n1cnc(N)c(C(=O)Nc2cncc(C(C)N)c2)c1=O (single isomer, unassigned) [Example 114] | 507 nM | 12.1 nM | 4.4 nM | 252 nM | – | –
COc1cc(Cl)c(-n2cnc(N)c(C(=O)Nc3cncc(C(N)CC(F)F)c3)c2=O)c(Cl)c1 (single isomer, unassigned) [Example 82, (R)-4-amino-N-(5-(1-amino-3,3-difluoropropyl)pyridin-3-yl)-1-(2,6-dichloro-4-methoxyphenyl)-6-oxo-1,6-dihydropyrimidine-5-carboxamide or (S)-4-amino-N-(5-(1-amino-3,3-difluoropropyl)pyridin-3-yl)-1-(2,6-dichloro-4-methoxyphenyl)-6-oxo-1,6-dihydropyrimidine-5-carboxamide] | 248 nM | 4.5 nM | 4 nM | 269 nM | – | –
COc1cc(C)c(-n2cnc(N)c(C(=O)Nc3cncc([C@H]4CCCCN4)c3)c2=O)c(C)c1 [Example 205, (R)-4-amino-1-(4-methoxy-2,6-dimethylphenyl)-6-oxo-N-(5-(piperidin-2-yl)pyridin-3-yl)-1,6-dihydropyrimidine-5-carboxamide] | 238 nM | 5 nM | 3.7 nM | 204 nM | – | –
